In patent US6737383B1, “Herbicidal oxadiazolidines” (priority 1999, dated 2004):

Tests used:
morningglory = assay: Test B pre/postemergence morningglory; type: in vivo, Ipomoea hederacea
In short: (§1)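 Herbicidal effect was estimated by eye on a ten-point control scale after plants spent twelve to sixteen days in a greenhouse following soil or foliar treatment. Foliar sprays targeted plants at one to four leaves; all doses were formulated in a non-phytotoxic solvent with surfactant.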

surinam grass = assay: Test B pre/postemergence surinam grass; type: in vivo, Brachiaria decumbens
In short: as §1

rice = assay: Test B flood test rice; type: in vivo, Oryza sativa
In short: (§2)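 Flood test on plants grown to the 2-leaf stage; treated plants kept in greenhouse twelve to sixteen days, then visually rated against controls on a 0 (no effect) to 10 (complete control) scale.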

giant foxtail = assay: Test B pre/postemergence giant foxtail; type: in vivo, Setaria faberii
In short: as §1

purple nutsedge = assay: Test B pre/postemergence purple nutsedge; type: in vivo, Cyperus rotundus
In short: as §1

pigweed = assay: Test B pre/postemergence pigweed; type: in vivo, Amaranthus retroflexus
In short: as §1

rape = assay: Test B pre/postemergence rape; type: in vivo, Brassica napus
In short: as §1

duck salad = assay: Test B flood test duck salad; type: in vivo, Heteranthera limosa
In short: as §2

soybean = assay: Test B pre/postemergence soybean; type: in vivo, Glycine max
In short: as §1

crabgrass = assay: Test B pre/postemergence crabgrass; type: in vivo, Digitaria sanguinalis
In short: as §1

blackgrass = assay: Test B pre/postemergence blackgrass; type: in vivo, Alopecurus myosuroides
In short: as §1

wheat = assay: Test B pre/postemergence wheat; type: in vivo, Triticum aestivum
In short: as §1

smallflower flatsedge = assay: Test B flood test smallflower flatsedge; type: in vivo, Cyperus difformis
In short: as §2

bedstraw = assay: Test B pre/postemergence bedstraw; type: in vivo, Galium aparine; conditions: Postemergence
In short: as §1

sugar beet = assay: Test B pre/postemergence sugar beet; type: in vivo, Beta vulgaris
In short: as §1

corn = assay: Test B pre/postemergence corn; type: in vivo, Zea mays
In short: as §1

velvetleaf = assay: Test B pre/postemergence velvetleaf; type: in vivo, Abutilon theophrasti
In short: as §1

bamyardgrass = assay: Test B flood test barnyardgrass; type: in vivo, Echinochloa crus-galli
In short: as §2

cocklebur = assay: Test B pre/postemergence cocklebur; type: in vivo, Xanthium strumarium
In short: as §1

wild oat = assay: Test B pre/postemergence wild oat; type: in vivo, Avena fatua
In short: as §1

[1] = Postemergence, Rate 125 g/ha, scale 0 to 10, 0 is no effect, 10 is complete control
[2] = Postemergence, Rate 500 g/ha, scale 0 to 10, 0 is no effect, 10 is complete control
[3] = Preemergence, Rate 62 g/ha, scale of 0 to 10 where 0 is no effect and 10 is complete control
[4] = Preemergence, Rate 125 g/ha, scale 0 to 10, 0 is no effect, 10 is complete control
[5] = Preemergence, Rate 500 g/ha, scale 0 to 10, 0 is no effect, 10 is complete control
[6] = Rate 62 g/ha, Postemergence, scale 0 to 10 (0 no effect, 10 complete control)
[7] = Preemergence, Rate 250 g/ha, scale 0 to 10, 0 is no effect, 10 is complete control
[8] = Rate 62 g/ha, flood test species, Pre-emergence, visual evaluation after twelve to sixteen days
[9] = Rate 125 g/ha, under heading Pre-emergence, flood test species, visual evaluation after twelve to sixteen days
[10] = Rate 250 g/ha, Pre-emergence (flood test species), scale 0 to 10, 0 is no effect, 10 is complete control
[11] = Rate 500 g/ha, Pre-emergence section of Table B, 0 to 10 scale (0 no effect, 10 complete control)
[12] = Postemergence, Rate 250 g/ha, scale 0 to 10

CC(C)C(=O)Cn1c(=O)on(C(=O)N(c2ccc(Cl)cc2)C(C)C)c1=O [Compound 487]
Morningglory plant response rating (morningglory; [1]): 10 | Plant response rating, Morningglory (morningglory; [2]): 10 | Plant response rating, Morningglory (morningglory; [3]): 0 | Morningglory plant response rating (morningglory; [4]): 0 | Morningglory plant response rating (morningglory; [5]): 0 | Morningglory plant response rating (morningglory; [6]): 2 | B. signalgrass plant response rating (surinam grass; [1]): 0 | B. signalgrass plant response rating (surinam grass; Postemergence, Rate 250 g/ha, scale 0 to 10, 0 no effect, 10 complete control): 0 | Plant response rating, B. signalgrass (surinam grass; [2]): 0 | Plant response rating, B. signalgrass (surinam grass; [3]): 3 | B. signalgrass plant response rating (surinam grass; [4]): 3 | B. signalgrass plant response rating (surinam grass; [7]): 3 | B. signalgrass plant response rating (surinam grass; [5]): 5 | B. signalgrass plant response rating (surinam grass; [6]): 0 | Plant response rating, Rice (0 to 10 scale, 0 is no effect, 10 is complete control) (rice; [8]): 0 | Rice plant response rating (0 to 10 scale, 0 is no effect, 10 is complete control) (rice; [9]): 0 | Rice plant response rating (rice; [10]): 0 | Rice plant response rating (rice; [11]): 0 | Giant foxtail plant response rating (giant foxtail; [1]): 2 | Plant response rating, Giant foxtail (giant foxtail; [2]): 8 | Plant response rating, Giant foxtail (giant foxtail; [3]): 9 | Giant foxtail plant response rating (giant foxtail; [4]): 9 | Giant foxtail plant response rating (giant foxtail; [5]): 10 | Giant foxtail plant response rating (giant foxtail; [6]): 0 | Nutsedge plant response rating (purple nutsedge; [1]): 0 | Plant response rating, Nutsedge (purple nutsedge; [2]): 0 | Plant response rating, Nutsedge (purple nutsedge; [3]): 0 | Nutsedge plant response rating (purple nutsedge; [4]): 0 | Nutsedge plant response rating (purple nutsedge; [5]): 0 | Nutsedge plant response rating (purple nutsedge; [6]): 0 | Redroot pigweed plant response rating (pigweed; [1]): 2 | Plant response rating, Redroot pigweed (pigweed; [2]): 3 | Plant response rating, Redroot pigweed (pigweed; [3]): 1 | Redroot pigweed plant response rating (pigweed; [4]): 8 | Redroot pigweed plant response rating (pigweed; [5]): 10 | Redroot pigweed plant response rating (pigweed; [6]): 0 | Rape plant response rating (rape; [1]): 0 | Plant response rating, Rape (rape; [2]): 3 | Plant response rating, Rape (rape; [3]): 0 | Rape plant response rating (rape; [4]): 0 | Rape plant response rating (rape; [5]): 0 | Rape plant response rating (rape; [6]): 0 | Plant response rating, Ducksalad (0 to 10 scale, 0 is no effect, 10 is complete control) (duck salad; [8]): 0 | Ducksalad plant response rating (0 to 10 scale, 0 is no effect, 10 is complete control) (duck salad; [9]): 0 | Ducksalad plant response rating (duck salad; [10]): 0 | Ducksalad plant response rating (duck salad; [11]): 0 | Soybean plant response rating (soybean; [1]): 4 | Plant response rating, Soybean (soybean; [2]): 5 | Plant response rating, Soybean (soybean; [3]): 0 | Soybean plant response rating (soybean; [4]): 0 | Soybean plant response rating (soybean; [5]): 0 | Soybean plant response rating (soybean; [6]): 3 | Crabgrass plant response rating (crabgrass; [1]): 3 | Crabgrass plant response rating (crabgrass; [12]): 5 | Plant response rating, Crabgrass (crabgrass; [2]): 5 | Plant response rating, Crabgrass (crabgrass; [3]): 6 | Crabgrass plant response rating (crabgrass; [4]): 9 | Crabgrass plant response rating (crabgrass; [5]): 10 | Crabgrass plant response rating (crabgrass; [6]): 0 | Blackgrass plant response rating (blackgrass; [1]): 0 | Blackgrass plant response rating (blackgrass; [12]): 0 | Plant response rating, Blackgrass (blackgrass; [2]): 1 | Plant response rating, Blackgrass (blackgrass; [3]): 2 | Blackgrass plant response rating (blackgrass; [4]): 3 | Blackgrass plant response rating (blackgrass; [7]): 7 | Blackgrass plant response rating (blackgrass; [5]): 9 | Blackgrass plant response rating (blackgrass; [6]): 0 | Wheat plant response rating (wheat; [1]): 0 | Plant response rating, Wheat (wheat; [2]): 0 | Plant response rating, Wheat (wheat; [3]): 0 | Wheat plant response rating (wheat; [4]): 0 | Wheat plant response rating (wheat; [5]): 0 | Wheat plant response rating (wheat; [6]): 0 | Plant response rating, S. Flatsedge (0 to 10 scale, 0 is no effect, 10 is complete control) (smallflower flatsedge; [8]): 0 | S. Flatsedge plant response rating (0 to 10 scale, 0 is no effect, 10 is complete control) (smallflower flatsedge; [9]): 0 | S. Flatsedge plant response rating (smallflower flatsedge; [10]): 0 | S. Flatsedge plant response rating (smallflower flatsedge; [11]): 0 | Bedstraw plant response rating (bedstraw; Rate 125 g/ha, scale 0 to 10, 0 is no effect, 10 is complete control): 2 | Bedstraw plant response rating (bedstraw; Rate 250 g/ha, scale 0 to 10): 6 | Plant response rating, Bedstraw (bedstraw; Rate 500 g/ha, scale 0 to 10, 0 is no effect, 10 is complete control): 6 | Bedstraw plant response rating (bedstraw; Rate 62 g/ha, scale 0 to 10 (0 no effect, 10 complete control)): 0 | Sugarbeets plant response rating (sugar beet; [1]): 0 | Plant response rating, Sugarbeets (sugar beet; [2]): 0 | Plant response rating, Sugarbeets (sugar beet; [3]): 0 | Sugarbeets plant response rating (sugar beet; [4]): 0 | Sugarbeets plant response rating (sugar beet; [5]): 0 | Sugarbeets plant response rating (sugar beet; [6]): 0 | Corn plant response rating (corn; [1]): 0 | Corn plant response rating (corn; [12]): 0 | Plant response rating, Corn (corn; [2]): 0 | Plant response rating, Corn (corn; [3]): 0 | Corn plant response rating (corn; [4]): 0 | Corn plant response rating (corn; [5]): 0 | Corn plant response rating (corn; [6]): 0 | Velvetleaf plant response rating (velvetleaf; [1]): 0 | Plant response rating, Velvetleaf (velvetleaf; [2]): 2 | Plant response rating, Velvetleaf (velvetleaf; [3]): 0 | Velvetleaf plant response rating (velvetleaf; [4]): 0 | Velvetleaf plant response rating (velvetleaf; [5]): 0 | Plant response rating, Barnyardgrass (0 to 10 scale, 0 is no effect, 10 is complete control) (bamyardgrass; [8]): 0 | Barnyardgrass plant response rating (0 to 10 scale, 0 is no effect, 10 is complete control) (bamyardgrass; [9]): 0 | Barnyardgrass plant response rating (bamyardgrass; [10]): 0 | Barnyardgrass plant response rating (bamyardgrass; [11]): 0 | Cocklebur plant response rating (cocklebur; [1]): 0 | Cocklebur plant response rating (cocklebur; [12]): 0 | Plant response rating, Cocklebur (cocklebur; [2]): 0 | Plant response rating, Cocklebur (cocklebur; [3]): 0 | Cocklebur plant response rating (cocklebur; [7]): 0 | Cocklebur plant response rating (cocklebur; [5]): 0 | Cocklebur plant response rating (cocklebur; [6]): 0 | Wild oats plant response rating (wild oat; [1]): 0 | Plant response rating, Wild oats (wild oat; [2]): 0 | Plant response rating, Wild oats (wild oat; [3]): 0 | Wild oats plant response rating (wild oat; [4]): 0 | Wild oats plant response rating (wild oat; [5]): 6 | Wild oats plant response rating (wild oat; [6]): 0
